# Assay results from patent US11612603B1, “3-triazolyl methyl-1,3,5-triazine-2,4-dione compounds and preparation method and application thereof” (priority 2022, dated 2023).
# What was measured:
# HEK293 cells = assay: In vitro cytotoxicity, MTT method, HEK293 cells; format: cell-based; conditions: for HEK293 cell viability: 24 h, MTT
# Method: (§1) HepG2, HEK293 and A549 cells were taken in logarithmic growth phase, digested with trypsin to prepare cell suspensions. The cell density was adjusted to 5×10^4 cells/mL, inoculating 180 μL per well in a sterile 96-well cell culture plate, incubating for 24 h at 37° C. in a 5% CO2 incubator. After the cells were attached to the bottom of the well plate, 20 μL of the drug solutions in a concentration gradient were added to each well, and 6 duplicate wells were set up in parallel, including blank group (no cells, no compounds) and control groups (no compounds). After incubating for 24 h at 37° C. in a 5% CO2 constant temperature incubator, 20 μL of 5 g/L MTT solution was added to each well for 4 h. After the incubation, the culture medium in the wells was gently aspirated, 100 μL of DMSO was added to each well, and the cells were shaken at low speed for 10 min on a shaker to fully dissolve the crystals to calculate cell viability. Cell viability (%)=(Sample Group GD Value−Blank Group GD Value)/(Control Group GD Value−Blank Group GD Value)
# SARS-CoV-2 3CL^pro = SARS-CoV-2 3CL^pro (Severe acute respiratory syndrome coronavirus 2 (2019-nCoV) (SARS-CoV-2), UniProt P0DTD1); assay: biochemical; conditions: for IC50: 3CL^pro FRET; for inhibition at 0.0001 µM: Conc 0.1 nM; for inhibition at 0.0001 µM / inhibition at 0.001 µM / inhibition at 0.005 µM / inhibition at 0.01 µM / inhibition at 0.02 µM / inhibition at 0.03 µM / inhibition at 0.05 µM / inhibition at 0.1 µM / inhibition at 0.5 µM / inhibition at 1 µM: read-out: Inhibitory activity on 3CL^pro (inhibition rate); for inhibition at 0.001 µM: Conc 1 nM; for inhibition at 0.005 µM: Conc 5 nM; for inhibition at 0.01 µM: Conc 10 nM; for inhibition at 0.02 µM: Conc 20 nM; for inhibition at 0.03 µM: Conc 30 nM; for inhibition at 0.05 µM: Conc 50 nM; for inhibition at 0.1 µM: Conc 100 nM; for inhibition at 0.5 µM: Conc 500 nM; for inhibition at 1 µM: Conc 1000 nM
# HepG2 cells = assay: In vitro cytotoxicity, MTT method, HepG2 cells; format: cell-based; conditions: for HEPG2 cell viability: 24 h, MTT
# Method: as §1
# A549 cells = assay: In vitro cytotoxicity, MTT method, A549 cells; format: cell-based; conditions: for A549 cell viability: 24 h, MTT
# Method: as §1
smiles,measurement,setting,value
Cn1cc2cc(/N=c3\[nH]c(=O)n(Cc4cnn[nH]4)c(=O)n3Cc3cc(F)c(F)cc3F)c(Cl)cc2n1 [Compound 1],HEK293 cell viability,HEK293 cells; 1.5625 nM,99.03%
same,HEK293 cell viability,HEK293 cells; 3.125 nM,96.70%
same,HEK293 cell viability,HEK293 cells; 6.25 nM,94.02%
same,HEK293 cell viability,HEK293 cells; 12.5 nM,89.50%
same,HEK293 cell viability,HEK293 cells; 25 nM,86.03%
same,HEK293 cell viability,HEK293 cells; 50 nM,88.49%
same,HEK293 cell viability,HEK293 cells; 100 nM,84.87%
same,HEK293 cell viability,HEK293 cells; 200 nM,83.54%
same,HEK293 cell viability,HEK293 cells; 400 nM,81.17%
same,inhibitory rate on HEK293 cells compared with positive drugs,HEK293 cells; at any concentration,lower than that of PF-07321332 and S-217622
same,IC50,SARS-CoV-2 3CL^pro,92.6 nM
same,inhibition at 0.0001 µM,SARS-CoV-2 3CL^pro,1.68%
same,inhibition at 0.001 µM,SARS-CoV-2 3CL^pro,2.35%
same,inhibition at 0.005 µM,SARS-CoV-2 3CL^pro,7.62%
same,inhibition at 0.01 µM,SARS-CoV-2 3CL^pro,10.9%
same,inhibition at 0.02 µM,SARS-CoV-2 3CL^pro,15.2%
same,inhibition at 0.03 µM,SARS-CoV-2 3CL^pro,20.8%
same,inhibition at 0.05 µM,SARS-CoV-2 3CL^pro,26.2%
same,inhibition at 0.1 µM,SARS-CoV-2 3CL^pro,59.3%
same,inhibition at 0.5 µM,SARS-CoV-2 3CL^pro,82.5%
same,inhibition at 1 µM,SARS-CoV-2 3CL^pro,96.2%
same,HEPG2 cell viability,HepG2 cells; 1.5625 nM,97.09%
same,HEPG2 cell viability,HepG2 cells; 3.125 nM,96.29%
same,HEPG2 cell viability,HepG2 cells; 6.25 nM,97.83%
same,HEPG2 cell viability,HepG2 cells; 12.5 nM,95.39%
same,HEPG2 cell viability,HepG2 cells; 25 nM,90.35%
same,HEPG2 cell viability,HepG2 cells; 50 nM,88.09%
same,HEPG2 cell viability,HepG2 cells; 100 nM,87.72%
same,HEPG2 cell viability,HepG2 cells; 200 nM,85.58%
same,HEPG2 cell viability,HepG2 cells; 400 nM,82.62%
same,inhibitory rate on HepG2 cells compared with positive drugs,HepG2 cells; at any concentration,lower than that of PF-07321332 and S-217622
same,A549 cell viability,A549 cells; 1.5625 nM,99.46%
same,A549 cell viability,A549 cells; 3.125 nM,98.65%
same,A549 cell viability,A549 cells; 6.25 nM,98.82%
same,A549 cell viability,A549 cells; 12.5 nM,98.93%
same,A549 cell viability,A549 cells; 25 nM,98.71%
same,A549 cell viability,A549 cells; 50 nM,98.76%
same,A549 cell viability,A549 cells; 100 nM,98.69%
same,A549 cell viability,A549 cells; 200 nM,95.01%
same,A549 cell viability,A549 cells; 400 nM,93.02%
same,inhibitory rate on A549 cells compared with positive drugs,A549 cells; at any concentration,lower than that of PF-07321332 and S-217622
Cn1cc2cc(/N=c3\[nH]c(=O)n(Cc4cnn[nH]4)c(=O)n3Cc3ccccc3)c(Cl)cc2n1 [Compound 2],IC50,SARS-CoV-2 3CL^pro; class symbols,500 to 1000 nM
Cc1ccc(Cn2c(=O)n(Cc3cnn[nH]3)c(=O)[nH]/c2=N\c2cc3cn(C)nc3cc2Cl)cc1 [Compound 3],IC50,SARS-CoV-2 3CL^pro; class symbols,500 to 1000 nM
Cn1cc2cc(/N=c3\[nH]c(=O)n(Cc4cnn[nH]4)c(=O)n3Cc3ccc(C(C)(C)C)cc3)c(Cl)cc2n1 [Compound 4],IC50,SARS-CoV-2 3CL^pro; class symbols,500 to 1000 nM
Cn1cc2cc(/N=c3\[nH]c(=O)n(Cc4cnn[nH]4)c(=O)n3Cc3ccc([N+](=O)[O-])cc3)c(Cl)cc2n1 [Compound 5],IC50,SARS-CoV-2 3CL^pro; class symbols,200 to 500 nM
COc1ccc(Cn2c(=O)n(Cc3cnn[nH]3)c(=O)[nH]/c2=N\c2cc3cn(C)nc3cc2Cl)cc1 [Compound 6],IC50,SARS-CoV-2 3CL^pro; class symbols,> 1000 nM
Cn1cc2cc(/N=c3\[nH]c(=O)n(Cc4cnn[nH]4)c(=O)n3Cc3ccc(OC(F)(F)F)cc3)c(Cl)cc2n1 [Compound 7],IC50,SARS-CoV-2 3CL^pro,< 100 nM
same,IC50,SARS-CoV-2 3CL^pro; class symbols,< 100 nM
Cn1cc2cc(/N=c3\[nH]c(=O)n(Cc4cnn[nH]4)c(=O)n3Cc3ccc(F)cc3)c(Cl)cc2n1 [Compound 8],IC50,SARS-CoV-2 3CL^pro; class symbols,200 to 500 nM
Cn1cc2cc(/N=c3\[nH]c(=O)n(Cc4cnn[nH]4)c(=O)n3Cc3ccc(Cl)cc3)c(Cl)cc2n1 [Compound 9],IC50,SARS-CoV-2 3CL^pro; class symbols,200 to 500 nM
Cn1cc2cc(/N=c3\[nH]c(=O)n(Cc4cnn[nH]4)c(=O)n3Cc3ccc(C(F)(F)F)cc3)c(Cl)cc2n1 [Compound 12],HEK293 cell viability,HEK293 cells; 1.5625 nM,93.67%
same,HEK293 cell viability,HEK293 cells; 3.125 nM,93.03%
same,HEK293 cell viability,HEK293 cells; 6.25 nM,92.31%
same,HEK293 cell viability,HEK293 cells; 12.5 nM,90.69%
same,HEK293 cell viability,HEK293 cells; 25 nM,84.22%
same,HEK293 cell viability,HEK293 cells; 50 nM,82.91%
same,HEK293 cell viability,HEK293 cells; 100 nM,81.24%
same,HEK293 cell viability,HEK293 cells; 200 nM,80.57%
same,HEK293 cell viability,HEK293 cells; 400 nM,78.23%
same,HEK293 cell viability compared with positive drugs,HEK293 cells; at 12.5 nM and lower,higher than that of PF-07321332 and S-217622
same,toxicity on HEK293 cells compared with positive drugs,HEK293 cells; at 400 nM and 200 nM,slightly higher than that of PF-07321332 and S-217622
same,IC50,SARS-CoV-2 3CL^pro,178 nM
same,inhibition at 0.0001 µM,SARS-CoV-2 3CL^pro,0.76%
same,inhibition at 0.001 µM,SARS-CoV-2 3CL^pro,2.33%
same,inhibition at 0.005 µM,SARS-CoV-2 3CL^pro,5.73%
same,inhibition at 0.01 µM,SARS-CoV-2 3CL^pro,8.52%
same,inhibition at 0.02 µM,SARS-CoV-2 3CL^pro,12.1%
same,inhibition at 0.03 µM,SARS-CoV-2 3CL^pro,16.5%
same,inhibition at 0.05 µM,SARS-CoV-2 3CL^pro,21.2%
same,inhibition at 0.1 µM,SARS-CoV-2 3CL^pro,37.2%
same,inhibition at 0.5 µM,SARS-CoV-2 3CL^pro,68.7%
same,inhibition at 1 µM,SARS-CoV-2 3CL^pro,88.6%
same,HEPG2 cell viability,HepG2 cells; 1.5625 nM,95.73%
same,HEPG2 cell viability,HepG2 cells; 3.125 nM,95.07%
same,HEPG2 cell viability,HepG2 cells; 6.25 nM,93.31%
same,HEPG2 cell viability,HepG2 cells; 12.5 nM,90.22%
same,HEPG2 cell viability,HepG2 cells; 25 nM,88.36%
same,HEPG2 cell viability,HepG2 cells; 50 nM,86.83%
same,HEPG2 cell viability,HepG2 cells; 100 nM,86.63%
same,HEPG2 cell viability,HepG2 cells; 200 nM,81.38%
same,HEPG2 cell viability,HepG2 cells; 400 nM,76.67%
same,HepG2 cell viability compared with positive drugs,HepG2 cells; at 12.5 nM and lower,higher than that of PF-07321332 and S-217622
same,toxicity on HepG2 cells compared with positive drugs,HepG2 cells; at 400 nM and 200 nM,slightly higher than that of PF-07321332 and S-217622
same,A549 cell viability,A549 cells; 1.5625 nM,98.52%
same,A549 cell viability,A549 cells; 3.125 nM,97.34%
same,A549 cell viability,A549 cells; 6.25 nM,96.55%
same,A549 cell viability,A549 cells; 12.5 nM,97.32%
same,A549 cell viability,A549 cells; 25 nM,96.21%
same,A549 cell viability,A549 cells; 50 nM,98.03%
same,A549 cell viability,A549 cells; 100 nM,96.61%
same,A549 cell viability,A549 cells; 200 nM,94.13%
same,A549 cell viability,A549 cells; 400 nM,90.13%
same,A549 cell viability compared with positive drugs,A549 cells; at 12.5 nM and lower,higher than that of PF-07321332 and S-217622
same,toxicity on A549 cells compared with positive drugs,A549 cells; at 400 nM and 200 nM,slightly higher than that of PF-07321332 and S-217622
Cc1cc(C)cc(Cn2c(=O)n(Cc3cnn[nH]3)c(=O)[nH]/c2=N\c2cc3cn(C)nc3cc2Cl)c1 [Compound 13],IC50,SARS-CoV-2 3CL^pro; class symbols,500 to 1000 nM
